#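 Following 48 hours of exposure in 96-well plates, responses at five concentrations were used to interpolate endpoints linearly. At the GI50, growth is halved. The concentration for full growth arrest is given as TGI.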
# Tests used:
# Experiment in all cases: inhibition of tumour cell growth, NCI panel, 48 h
# NCI-H460 lung = test system: NCI-H460 lung
# UO-31 renal = test system: UO-31 renal
# SNB-19 CNS = test system: SNB-19 CNS
# OVCAR-5 ovarian = test system: OVCAR-5 ovarian
# MDA-MB-435 = test system: MDA-MB-435
# NCI/ADR-RES ovarian = test system: NCI/ADR-RES ovarian
# CCRF-CEM leukemia = test system: CCRF-CEM leukemia
# SK-OV-3 ovarian = test system: SK-OV-3 ovarian
# KM12 colon = test system: KM12 colon
# OVCAR-8 ovarian = test system: OVCAR-8 ovarian
# PC-3 prostate = test system: PC-3 prostate
# SK-MEL-28 melanoma = test system: SK-MEL-28 melanoma
# SF-268 CNS = test system: SF-268 CNS
# A549 NSCLC = test system: A549 NSCLC
# 786-0 renal = test system: 786-0 renal
# HT29 colon = test system: HT29 colon
# HOP-62 NSCLC = test system: HOP-62 NSCLC
# NCI-H522 lung = test system: NCI-H522 lung
# SR leukemia = test system: SR leukemia
Compound,TGI (NCI-H460 lung),TGI (UO-31 renal),TGI (SNB-19 CNS),TGI (OVCAR-5 ovarian),TGI (MDA-MB-435),TGI (NCI/ADR-RES ovarian),TGI (CCRF-CEM leukemia),TGI (SK-OV-3 ovarian),TGI (KM12 colon),TGI (OVCAR-8 ovarian),TGI (PC-3 prostate),TGI (SK-MEL-28 melanoma),TGI (SF-268 CNS),TGI (A549 NSCLC),TGI (786-0 renal),TGI (HT29 colon),TGI (HOP-62 NSCLC),TGI (NCI-H522 lung),TGI (SR leukemia),GI50 (CCRF-CEM leukemia)
Cn1c(COC(=O)Nc2ccccc2)c(COC(=O)Nc2ccccc2)c2ccc3cc(Cl)c(Cl)cc3c21,22.9 µM,26.5 µM,> 75 µM,24.1 µM,29.1 µM,66.7 µM,> 75 µM,> 75 µM,23.4 µM,7.5 µM,20.4 µM,41.4 µM,21.9 µM,> 75 µM,12.6 µM,23.6 µM,–,–,–,–
CC(C)CC(O)P(=O)(O)O (centres undefined),> 100 µM,> 100 µM,> 100 µM,> 100 µM,> 100 µM,–,–,> 100 µM,> 100 µM,–,> 100 µM,> 100 µM,–,> 100 µM,> 100 µM,> 100 µM,> 100 µM,–,–,–
CC(=O)NC1c2ccccc2C(C)(C)C12CCC1(CC2)OCCO1 (centres undefined),> 10 µM,> 100 µM,> 100 µM,> 100 µM,–,> 100 µM,> 100 µM,> 10 µM,> 100 µM,> 100 µM,> 100 µM,> 100 µM,> 100 µM,> 100 µM,> 100 µM,> 100 µM,> 100 µM,> 100 µM,> 100 µM,–
CC1=NNC(=O)C1C(CC(=O)c1c[nH]c2ccccc12)C(=O)O (centres undefined),> 100 µM,> 100 µM,> 100 µM,> 100 µM,> 100 µM,> 100 µM,> 100 µM,> 100 µM,> 100 µM,> 100 µM,> 100 µM,> 100 µM,> 100 µM,> 100 µM,> 100 µM,> 100 µM,> 100 µM,> 100 µM,–,–
CCC/C(Cl)=N\OC(=O)Nc1ccc(OC(F)(F)F)cc1,40.1 µM,23.3 µM,> 58.7 µM,35.9 µM,49.9 µM,> 25.3 µM,> 26.7 µM,34.2 µM,30.8 µM,36.3 µM,32.8 µM,41.9 µM,> 84.7 µM,42.3 µM,26.1 µM,42.4 µM,35.5 µM,2.39 µM,–,–
[N-]=[N+]=NC1=C(c2ccccn2)C(=O)c2cccc3cccc1c23,> 100 µM,36.1 µM,> 100 µM,> 100 µM,> 100 µM,> 100 µM,> 100 µM,> 100 µM,> 100 µM,–,> 100 µM,> 100 µM,65.9 µM,> 100 µM,> 100 µM,> 100 µM,> 100 µM,–,> 100 µM,–
Nc1ccn(C2OC(CO)C(O)C2O)c(=O)c1 (centres undefined),> 625 µM,> 625 µM,> 625 µM,–,–,> 625 µM,> 625 µM,> 625 µM,> 625 µM,> 625 µM,–,> 625 µM,> 625 µM,> 625 µM,–,> 625 µM,403 µM,> 625 µM,–,–
CCOc1ccc(/C=C2/C(=O)N=C(NC(C)=O)N2C)cc1,> 100 µM,> 100 µM,> 100 µM,> 100 µM,> 100 µM,> 100 µM,–,> 100 µM,> 100 µM,> 100 µM,–,> 100 µM,> 100 µM,> 100 µM,> 100 µM,> 100 µM,> 100 µM,–,–,–
COc1ccc(N2C(=O)CSC2c2c[nH]c3ccccc23)cc1 (centres undefined),> 100 µM,> 100 µM,> 100 µM,> 100 µM,> 100 µM,–,> 100 µM,> 100 µM,> 100 µM,> 100 µM,> 100 µM,> 100 µM,> 100 µM,–,–,> 100 µM,> 100 µM,84.9 µM,> 100 µM,–
O=C1c2ccccc2C2(c3ccc(Cl)cc3)N[C@H]3CCCC[C@@H]3N12 (some centres undefined),–,> 100 µM,> 100 µM,–,> 100 µM,> 100 µM,> 100 µM,> 100 µM,> 100 µM,> 100 µM,> 100 µM,> 100 µM,> 100 µM,> 100 µM,> 100 µM,> 100 µM,> 100 µM,–,> 100 µM,–
COc1cccc(/C=N/n2c(C)n[nH]c2=O)c1,> 100 µM,> 100 µM,> 100 µM,> 100 µM,> 100 µM,> 100 µM,> 100 µM,> 100 µM,> 100 µM,> 100 µM,> 100 µM,> 100 µM,> 100 µM,> 100 µM,> 100 µM,> 100 µM,> 100 µM,–,–,–
COC(=O)C1=C(C)NC(C)=C(C(=O)OC)C1c1nc2sccn2c1[N+](=O)[O-],> 100 µM,> 100 µM,> 100 µM,> 100 µM,> 100 µM,> 100 µM,> 100 µM,> 100 µM,> 100 µM,> 100 µM,> 100 µM,> 100 µM,> 100 µM,> 100 µM,> 100 µM,–,> 100 µM,–,> 100 µM,–
O=C(N/N=C/c1cc(Br)cc(Br)c1[O-])c1ccccc1O.O=C(N/N=C/c1cc(Br)cc(Br)c1[O-])c1ccccc1O.[Cu+2],13.6 µM,1.5 µM,2.28 µM,2.03 µM,–,–,4.54 µM,1.12 µM,1.98 µM,1.38 µM,–,2.01 µM,2.51 µM,–,–,2.5 µM,0.845 µM,0.59 µM,1.17 µM,0.446 µM
COC(=O)C1CCCN1C(=O)C(Cc1cn(S(=O)(=O)c2ccc(C)cc2)cn1)NC(=O)OC(C)(C)C (centres undefined),> 100 µM,> 100 µM,> 100 µM,> 100 µM,–,–,> 100 µM,–,> 100 µM,> 100 µM,> 100 µM,> 100 µM,–,> 100 µM,> 100 µM,> 100 µM,> 100 µM,–,> 100 µM,–
